In ChEMBL document CHEMBL1201862, “PubChem BioAssay data set” (2004):
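Where inhibition never reached the appropriate level, the endpoint shown equals the highest concentration tested. Otherwise, values were interpolated linearly from a five-concentration, 48-hour dose response in 96-well plates. GI50 is the concentration that inhibits growth by half.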 Activity calls are given as the source filed them. Rule as the data show it: active = GI50 up to about 1.1 µM and inactive = higher.

Tests used:
Assay in all cases: NCI tumour cell line growth inhibition, 48 h
[1] = tested on: SN12C
[2] = tested on: SK-MEL-28
[3] = tested on: HCT-116
[4] = tested on: KM12
[5] = tested on: IGROV-1
[6] = tested on: Malme-3M
[7] = tested on: MOLT-4
[8] = tested on: HL-60
[9] = tested on: SK-MEL-5
[10] = tested on: OVCAR-3
[11] = tested on: OVCAR-8
[12] = tested on: SF-295
[13] = tested on: K562
[14] = tested on: EKVX
[15] = tested on: SNB-19
[16] = tested on: UACC-62
[17] = tested on: KM-20L2
[18] = tested on: HCC 2998
[19] = tested on: SK-OV-3
[20] = tested on: NCI-H460
[21] = tested on: COLO 205
[22] = tested on: SF-268
[23] = tested on: SF-539
[24] = tested on: UO-31
[25] = tested on: HOP-92
[26] = tested on: LOX IMVI
[27] = tested on: 786-0
[28] = tested on: RXF 631
[29] = tested on: SW-620
[30] = tested on: OVCAR-5
[31] = tested on: DMS-114
[32] = tested on: U-251
[33] = tested on: OVCAR-4
[34] = tested on: A549
[35] = tested on: M14
[36] = tested on: UACC-257
[37] = tested on: M19-MEL
[38] = tested on: SR
[39] = tested on: ACHN
[40] = tested on: NCI-H23
[41] = tested on: HOP-62
[42] = tested on: DMS-273
[43] = tested on: HT-29
[44] = tested on: CCRF-CEM
[45] = tested on: DLD-1
[46] = tested on: LXFL 529
[47] = tested on: SNB-78
[48] = tested on: NCI-H226
[49] = tested on: RXF 393
[50] = tested on: CAKI-1
[51] = tested on: HOP-18
[52] = tested on: TK-10
[53] = tested on: A498
[54] = tested on: SNB-75
[55] = tested on: NCI-H522
[56] = tested on: RPMI-8226
[57] = tested on: XF498
[58] = tested on: SK-MEL-2

Measured: GI50

Cc1c(C(=O)Nc2ccc(Cl)cc2)nc(N)nc1-c1cccc(Cl)c1
inactive: [1] > 100 µM | [2] > 100 µM | [3] 57.3 µM | [4] 46.6 µM | [5] > 100 µM | [6] > 100 µM | [7] > 100 µM | [8] 39.2 µM | [9] > 100 µM | [10] > 100 µM | [11] > 100 µM | [12] > 100 µM | [13] 38.5 µM | [14] > 100 µM | [15] > 100 µM | [16] > 100 µM | [17] 45.4 µM | [18] 61.9 µM | [19] > 100 µM | [20] 66.2 µM | [21] 77.3 µM | [22] > 100 µM | [23] > 100 µM | [24] > 100 µM | [25] 28.4 µM | [26] > 10 µM | [27] > 100 µM | [28] 52.1 µM | [29] 62.7 µM | [30] > 100 µM | [31] 94.4 µM | [32] > 100 µM | [33] > 100 µM | [34] 74.5 µM | [35] 55.7 µM | [36] > 100 µM | [37] > 100 µM | [38] > 100 µM | [39] > 100 µM | [40] > 100 µM | [41] > 100 µM | [42] > 100 µM | [43] 36.7 µM | [44] > 100 µM | [45] > 100 µM | [46] > 10 µM | [47] > 100 µM | [48] > 100 µM | [49] 39.5 µM | [50] 68.7 µM | [51] > 100 µM

CN(C(=O)C12C3C4C1C1C2C3C41C(O)C(C)(C)C)C(C)(C)C (stereo not given)
inactive: [1] > 100 µM | [2] > 100 µM | [3] > 100 µM | [4] > 100 µM | [5] > 100 µM | [6] > 100 µM | [7] > 100 µM | [8] > 100 µM | [9] > 100 µM | [10] > 100 µM | [11] > 100 µM | [12] > 100 µM | [13] > 100 µM | [14] > 100 µM | [52] > 100 µM | [15] > 100 µM | [16] > 100 µM | [17] > 100 µM | [18] > 100 µM | [53] > 100 µM | [19] > 100 µM | [20] > 100 µM | [21] > 100 µM | [22] > 100 µM | [23] > 100 µM | [24] > 100 µM | [26] > 100 µM | [27] > 100 µM | [28] > 100 µM | [29] > 100 µM | [30] > 100 µM | [54] > 100 µM | [31] > 100 µM | [32] > 100 µM | [33] > 100 µM | [34] > 100 µM | [35] > 100 µM | [36] > 100 µM | [55] 58.2 µM | [37] > 100 µM | [39] > 100 µM | [40] > 100 µM | [41] > 100 µM | [42] > 100 µM | [56] > 100 µM | [43] > 100 µM | [44] > 100 µM | [45] > 100 µM | [57] > 100 µM | [46] > 100 µM | [58] > 100 µM | [47] > 100 µM | [48] > 100 µM | [50] > 100 µM
